Assay results as given in publication PMC7995636 (Bioorganic & medicinal chemistry, 2021).
One block for each compound: values may come before it.

Tests used:
P-glycoprotein (Pgp) = conditions: cited from earlier work
[1] = system: breast cancer resistance protein (BCRP1); conditions: cited from earlier work
[2] = higher in brain; cited from earlier work
Bovine brain tubulin = Bovine brain tubulin (Bos taurus, UniProt Q6B856); assay: Inhibition of tubulin assembly; assay type: biochemical
PDGFR-β = PDGFR-β (Homo sapiens, UniProt P09619); assay: Phosphotyrosine ELISA, PDGFR-β kinase inhibition; assay type: cell-based; conditions: compared to 1
HeLa cells = assay: SRB assay, HeLa; assay type: cell-based; conditions: Homo sapiens, read-out: IC50 ± SD in HeLa
HeLa WT-βIII cells = assay: SRB assay, HeLa WT-βIII; assay type: cell-based; conditions: Homo sapiens, read-out: IC50 ± SD in WT βIII

Bovine brain tubulin, sequence (Q6B856 whole entry): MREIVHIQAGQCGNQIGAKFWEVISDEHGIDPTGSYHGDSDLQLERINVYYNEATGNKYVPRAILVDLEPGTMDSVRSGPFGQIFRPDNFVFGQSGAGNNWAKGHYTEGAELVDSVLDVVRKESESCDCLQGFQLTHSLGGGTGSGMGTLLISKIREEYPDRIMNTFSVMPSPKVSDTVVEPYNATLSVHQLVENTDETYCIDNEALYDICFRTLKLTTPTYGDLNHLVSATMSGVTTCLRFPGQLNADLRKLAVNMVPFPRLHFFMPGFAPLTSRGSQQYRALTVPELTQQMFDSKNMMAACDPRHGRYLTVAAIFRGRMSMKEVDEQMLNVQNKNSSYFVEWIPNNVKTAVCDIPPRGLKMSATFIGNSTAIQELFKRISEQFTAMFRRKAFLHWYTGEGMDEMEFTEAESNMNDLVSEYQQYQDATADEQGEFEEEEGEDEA
Bovine brain tubulin, sequence (P81947 whole entry partner): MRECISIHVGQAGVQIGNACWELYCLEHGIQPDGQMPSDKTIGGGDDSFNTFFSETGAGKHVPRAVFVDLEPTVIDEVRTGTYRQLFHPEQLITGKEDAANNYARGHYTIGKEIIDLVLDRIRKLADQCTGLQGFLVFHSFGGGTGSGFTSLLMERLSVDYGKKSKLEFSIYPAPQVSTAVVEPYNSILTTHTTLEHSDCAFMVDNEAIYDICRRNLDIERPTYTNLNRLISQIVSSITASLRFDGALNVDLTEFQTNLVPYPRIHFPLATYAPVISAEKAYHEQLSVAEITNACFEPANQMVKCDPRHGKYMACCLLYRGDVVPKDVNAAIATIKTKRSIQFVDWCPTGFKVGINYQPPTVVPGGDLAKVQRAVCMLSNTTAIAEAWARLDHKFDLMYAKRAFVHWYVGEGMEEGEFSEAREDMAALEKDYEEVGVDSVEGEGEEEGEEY
PDGFR-β, sequence (P09619 33-1106): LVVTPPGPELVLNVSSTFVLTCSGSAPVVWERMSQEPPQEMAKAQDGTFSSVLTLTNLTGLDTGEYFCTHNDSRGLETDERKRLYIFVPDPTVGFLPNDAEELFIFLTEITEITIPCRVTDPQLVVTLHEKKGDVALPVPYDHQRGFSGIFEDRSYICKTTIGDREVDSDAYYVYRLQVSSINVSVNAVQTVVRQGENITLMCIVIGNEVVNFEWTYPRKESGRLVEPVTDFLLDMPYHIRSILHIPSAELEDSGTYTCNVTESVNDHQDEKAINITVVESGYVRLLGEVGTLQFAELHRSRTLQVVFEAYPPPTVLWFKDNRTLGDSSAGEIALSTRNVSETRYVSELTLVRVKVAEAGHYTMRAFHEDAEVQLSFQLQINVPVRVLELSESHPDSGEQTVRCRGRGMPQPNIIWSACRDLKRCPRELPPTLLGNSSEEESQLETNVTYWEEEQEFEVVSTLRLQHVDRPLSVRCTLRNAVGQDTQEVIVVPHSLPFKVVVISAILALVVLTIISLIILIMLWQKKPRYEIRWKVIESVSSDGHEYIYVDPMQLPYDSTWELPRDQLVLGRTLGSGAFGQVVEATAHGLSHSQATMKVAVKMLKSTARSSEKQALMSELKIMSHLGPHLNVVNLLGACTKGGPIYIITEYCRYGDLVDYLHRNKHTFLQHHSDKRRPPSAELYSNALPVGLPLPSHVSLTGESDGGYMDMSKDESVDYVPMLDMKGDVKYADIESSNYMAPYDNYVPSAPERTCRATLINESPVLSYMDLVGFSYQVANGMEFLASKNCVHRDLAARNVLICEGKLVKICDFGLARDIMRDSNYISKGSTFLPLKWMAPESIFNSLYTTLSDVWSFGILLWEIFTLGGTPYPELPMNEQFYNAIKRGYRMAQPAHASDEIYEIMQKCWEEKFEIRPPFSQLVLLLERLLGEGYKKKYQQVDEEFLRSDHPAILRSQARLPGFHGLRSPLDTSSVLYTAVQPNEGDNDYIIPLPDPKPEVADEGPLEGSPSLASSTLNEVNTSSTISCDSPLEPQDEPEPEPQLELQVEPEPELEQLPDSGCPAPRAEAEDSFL

SMILES: COc1ccc(N(C)c2nc(C)nc3ccccc23)cc1 [Compound 1, N-(4-Methoxyphenyl)-N,2-dimethylquinazolin-4-amine]
- substrate for P-glycoprotein (Pgp) (P-glycoprotein (Pgp)): not a substrate
- substrate for breast cancer resistance protein (BCRP1) [1]: not a substrate
- concentrations in the brain compared to the plasma [2]: 30 fold

- IC50 (Bovine brain tubulin): 480 ± 70 nM
SMILES: CSc1ccc(N(C)c2nc(C)nc3ccccc23)cc1 [Compound 3, N,2-Dimethyl-N-(4-(methylthio)phenyl)quinazolin-4-amine]

- fold loss of potency with PDGFR-β (PDGFR-β): ~ 5 fold
- IC50 (Bovine brain tubulin): 640 ± 10 nM
SMILES: COc1cccc2cc(N(C)c3nc(C)nc4ccccc34)ccc12 [Compound 4, N-(5-Methoxynaphthalen-2-yl)-N,2-dimethylquinazolin-4-amine]

- IC50 (Bovine brain tubulin): 470 ± 20 nM
SMILES: COc1ccc(N(C)c2nc(Cl)nc3ccccc23)cc1 [Compound 8, 2-Chloro-N-(4-methoxyphenyl)-N-methylquinazolin-4-amine]

- IC50 (HeLa cells): 2.8 ± 0.4 nM
- IC50 (HeLa WT-βIII cells): 24 ± 0.2 nM
SMILES: CC(=O)O[C@H]1C(=O)[C@@]2(C)[C@H]([C@H](OC(=O)c3ccccc3)[C@]3(O)C[C@H](OC(=O)[C@H](O)[C@@H](NC(=O)c4ccccc4)c4ccccc4)C(C)=C1C3(C)C)[C@]1(OC(C)=O)CO[C@@H]1C[C@@H]2O [Paclitaxel]
